# Assay results published in patent US9914730B2, “Azaquinazoline inhibitors of Atypical protein Kinase C” (Ignyta, Inc., priority 2012, dated 2018).
# Target: T1, full-length human PKCι (Homo sapiens, UniProt P41743)
# T1 construct: Recombinant, full-length human PKCι expressed in Sf21 insect cells is also commercially available; purchased; host or cells: Sf21 insect cells
# T1 sequence (P41743 1-596): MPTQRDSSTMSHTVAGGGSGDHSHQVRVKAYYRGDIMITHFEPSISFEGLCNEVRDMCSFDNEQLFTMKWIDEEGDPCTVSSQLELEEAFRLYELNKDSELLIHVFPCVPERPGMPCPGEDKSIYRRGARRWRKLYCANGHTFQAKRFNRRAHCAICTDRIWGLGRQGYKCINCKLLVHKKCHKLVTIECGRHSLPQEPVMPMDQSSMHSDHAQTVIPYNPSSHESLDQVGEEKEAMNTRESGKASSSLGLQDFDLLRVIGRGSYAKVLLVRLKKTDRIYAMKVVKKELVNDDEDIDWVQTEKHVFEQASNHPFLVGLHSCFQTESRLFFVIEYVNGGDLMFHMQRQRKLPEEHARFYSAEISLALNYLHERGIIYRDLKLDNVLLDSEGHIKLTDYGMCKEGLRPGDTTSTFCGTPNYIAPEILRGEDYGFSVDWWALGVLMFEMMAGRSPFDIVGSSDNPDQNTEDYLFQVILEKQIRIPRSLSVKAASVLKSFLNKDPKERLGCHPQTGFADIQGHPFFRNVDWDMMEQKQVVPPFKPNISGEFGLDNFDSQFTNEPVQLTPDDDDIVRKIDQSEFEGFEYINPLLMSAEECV
# Assay: PKCι IC50 IMAP assay, full-length PKCι at 150 μM ATP
# Type: biochemical
# Conditions: read-out: IC50 in IMAP assay against full length PKCi at 150 μM ATP
# Procedure, shortened: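 IMAP fluorescence polarisation (ex 485/em 530 nm) read-out; % inhibition set from no-compound (0%) and no-enzyme (100%) controls, IC50 from dose-response curve fit. Sf21-expressed full-length enzyme ~15 pM, 100 nM FAM peptide, ATP 150 μM (5× KM^APP), 60 min at RT.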
row,SMILES,IC50 [nM]
1,"FC(F)(F)C1CN(c2nc(-c3ccnc(NC4CCCC4)c3)nc3cncc(C4CC4)c23)CCN1 (stereo not drawn) [Example 284, Cyclopentyl-{4-[5-cyclopropyl-4-(3-trifluoromethyl-piperazin-1-yl)-pyrido[3,4-d]pyrimidin-2-yl]-pyridin-2-yl}-amine]",100 to 1000
2,"COCCN1CCN(c2nc(-c3ccnc(Nc4ccc(F)cc4)c3)nc3cncc(C4CC4)c23)CC1 [Example 662, (4-{5-Cyclopropyl-4-[4-(2-methoxy-ethyl]-piperazin-1-yl]-pyrido[3,4-d]pyrimidin-2-yl}-pyridin-2-yl)-(4-fluoro-phenyl)-amine]",1000 to 10000
3,"N#Cc1ccccc1Nc1cc(-c2nc(N3CCNCC3)c3c(C4CC4)cncc3n2)ccn1 [Example 519, 2-[4-(5-Cyclopropyl-4-piperazin-1-yl-pyrido[3,4-d]pyrimidin-2-yl)-pyridin-2-ylamino]-benzonitrile]",100 to 1000
4,"CN(C[C@@H](N)Cc1ccccc1)c1nc(-c2ccncc2)nc2cnccc12 [Example 26, N-[(2S)-2-amino-3-phenylpropyl]-N-methyl-2-(pyridin-4-yl)pyrido[3,4-d]-pyrimidin-4-amine]",10000 to 40000
5,"c1ccc(C[C@@H]2CN(c3nc(-c4ccncc4)nc4cnccc34)CCN2)cc1 [Example 17, (3R)-3-benzyl-1-[2-(pyridin-4-yl)-pyrido[3,4-d]-pyrimidin-4-yl]-piperazine]",1000 to 10000
6,"COc1cncc2nc(-c3ccncc3)nc(N3CCC(N)(C(=O)Nc4ccccc4)C3)c12 (stereo not drawn) [Example 153, 3-Amino-1-(5-methoxy-2-pyridin-4-yl-pyrido[3,4-d]pyrimidin-4-yl)-pyrrolidine-3-carboxylic acid phenylamide]",1000 to 10000
7,"Cc1ccc(C(C)C)cc1Nc1cc(-c2nc(N3CCNCC3)c3c(C4CC4)cncc3n2)ccn1 [Example 558, [4-(5-Cyclopropyl-4-piperazin-1-yl-pyrido[3,4-d]pyrimidin-2-yl)-pyridin-2-yl]-(5-isopropyl-2-methyl-phenyl)-amine]",100 to 1000
8,"Fc1cccc(Nc2cc(-c3nc(N4CCNC(C(F)(F)F)C4)c4c(C5CC5)cncc4n3)ccn2)n1 (stereo not drawn) [Example 268, {4-[5-Cyclopropyl-4-(3-trifluoromethyl-piperazin-1-yl)-pyrido[3,4-d]pyrimidin-2-yl]-pyridin-2-yl}-(6-fluoro-pyridin-2-yl)-amine]",100 to 1000
9,"Fc1cnccc1-c1nc(N2CCNCC2)c2ccncc2n1 [Example 65, 1-[2-(3-fluoropyridin-4-yl)pyrido[3,4-d]-pyrimidin-4-yl]-piperazine]",10000 to 40000
10,"CS(=O)(=O)N[C@H](CNc1nc(-c2ccncc2)nc2cnccc12)Cc1ccccc1 [Example 83, N-(1-phenyl-3-{[2-(pyridin-4-yl)pyrido[3,4-d]pyrimidin-4-yl]amino}propan-2-yl)methanesulfonamide]",10000 to 40000
11,"Fc1cccc(Nc2cc(-c3nc(N4CCNCC4)c4c(Cl)cncc4n3)ccn2)c1F [Example 252, [4-(5-Chloro-4-piperazin-1-yl-pyrido[3,4-d]pyrimidin-2-yl)-pyridin-2-yl]-(2,3-difluoro-phenyl)-amine]",100 to 1000
12,"Oc1nc(-c2ccnc(Nc3cccc(CN4CCNCC4)c3)c2)nc2cnccc12 [Example 498, 2-[2-(3-piperazin-1-ylmethyl-phenylamino)-pyridin-4-yl]-pyrido[3,4-d]pyrimidin-4-ol]",10000 to 40000
13,"Fc1c(-c2nc(N3CCNCC3)c3c(C4CC4)cncc3n2)ccnc1Nc1ccccc1 [Example 701, [4-(5-Cyclopropyl-4-piperazin-1-yl-pyrido[3,4-d]pyrimidin-2-yl)-3-fluoro-pyridin-2-yl]-phenyl-amine]",10000 to 40000
14,"Fc1cnc(Nc2cc(-c3nc(N4CC5CNCC5C4)c4c(C5CC5)cncc4n3)ccn2)c(F)c1 (stereo not drawn) [Example 2132, {4-[5-Cyclopropyl-4-(hexahydro-pyrrolo[3,4-c]pyrrol-2-yl)-pyrido[3,4-d]pyrimidin-2-yl]-pyridin-2-yl}-(3,5-difluoro-pyridin-2-yl)-amine]",< 100
15,"Cc1ccc(Nc2cc(-c3nc(N[C@@H]4CCNC4)c4ccncc4n3)ccn2)nc1 [Example 345, {2-[2-(5-Methyl-pyridin-2-ylamino)-pyridin-4-yl]-pyrido[3,4-d]pyrimidin-4-yl}-(R)-pyrrolidin-3-yl-amine]",< 100
16,"COc1cncc2nc(-c3ccnc(NC(=O)Cc4ccccc4)c3)nc(N3CCNCC3)c12 [Example 371, N-[4-(5-Methoxy-4-piperazin-1-yl-pyrido[3,4-d]pyrimidin-2-yl)-pyridin-2-yl]-2-phenyl-acetamide]",< 100
17,"C[C@H]1CN(c2nc(-c3ccnc(Nc4ccccc4F)c3)nc3cncc(C4CC4)c23)CCN1 [Example 691, {4-[5-Cyclopropyl-4-((S)-3-methyl-piperazin-1-yl)-pyrido[3,4-d]pyrimidin-2-yl]-pyridin-2-yl}-(2-fluoro-phenyl)-amine]",< 100
18,"CN1CCN(C(=O)C2CCN(c3nc(-c4ccnc(Nc5c(F)cccc5F)c4)nc4cncc(C5CC5)c34)CC2)CC1 [Example 735, (1-{5-Cyclopropyl-2-[2-(2,6-difluoro-phenylamino)-pyridin-4-yl]-pyrido[3,4-d]pyrimidin-4-yl}-piperidin-4-yl)-(4-methyl-piperazin-1-yl)-methanone]",100 to 1000

# Now from value to molecule:
row,IC50 [nM],SMILES
1,< 100,"FC(F)(F)c1ccnc(Nc2cc(-c3nc(N4CCNCC4)c4c(C5CC5)cncc4n3)ccn2)c1 [Example 269, [4-(5-Cyclopropyl-4-piperazin-1-yl-pyrido[3,4-d]pyrimidin-2-yl)-pyridin-2-yl]-(4-trifluoromethyl-pyridin-2-yl)-amine]"
2,< 100,"C[C@@H](Nc1cc(-c2nc(N3CCNC(C)(C)C3)c3c(C4CC4)cncc3n2)ccn1)C1CCCCC1 [Example 835, ((R)-1-Cyclohexyl-ethyl)-{4-[5-cyclopropyl-4-(3,3-dimethyl-piperazin-1-yl)-pyrido[3,4-d]pyrimidin-2-yl]-pyridin-2-yl}-amine]"
3,< 100,"c1cc(-c2nc(N3CCNCC3)c3c(C4CC4)cncc3n2)cc(Nc2cnn(C3CCOCC3)c2)n1 [Example 795, [4-(5-Cyclopropyl-4-piperazin-1-yl-pyrido[3,4-d]pyrimidin-2-yl)-pyridin-2-yl]-[1-(tetrahydro-pyran-4-yl)-1H-pyrazol-4-yl]-amine]"
4,< 100,"CC1(C)CN(c2nc(-c3ccnc(Nc4nc(F)ccc4F)c3)nc3cncc(C4CC4)c23)CCN1 [Example 838, {4-[5-Cyclopropyl-4-(3,3-dimethyl-piperazin-1-yl)-pyrido[3,4-d]pyrimidin-2-yl]-pyridin-2-yl}-(3,6-difluoro-pyridin-2-yl)-amine]"
5,< 100,"FC(F)(F)c1cc2c(-c3nc(NC4CCNCC4)c4c(C5CC5)cncc4n3)ccnc2[nH]1 [Example 2068, [5-Cyclopropyl-2-(2-trifluoromethyl-1H-pyrrolo[2,3-b]pyridin-4-yl)-pyrido[3,4-d]pyrimidin-4-yl]-piperidin-4-yl-amine]"
6,< 100,"CS(=O)(=O)N1CCC(Nc2cc(-c3nc(N4CCNCC4)c4c(C5CC5)cncc4n3)ccn2)CC1 [Example 816, [4-(5-Cyclopropyl-4-piperazin-1-yl-pyrido[3,4-d]pyrimidin-2-yl)-pyridin-2-yl]-(1-methanesulfonyl-piperidin-4-yl)-amine]"
7,< 100,"Fc1cccc(F)c1Nc1cc(-c2nc(N3CCNCC3)c3c(Cl)cncc3n2)ccn1 [Example 254, [4-(5-Chloro-4-piperazin-1-yl-pyrido[3,4-d]pyrimidin-2-yl)-pyridin-2-yl]-(2,6-difluoro-phenyl)-amine]"
8,< 100,"COc1cncc2nc(-c3ccnc(Nc4ccccc4)c3)nc(N3CCNCC3)c12 [Example 200, [4-(5-Methoxy-4-piperazin-1-yl-pyrido[3,4-d]pyrimidin-2-yl)-pyridin-2-yl]-phenyl-amine]"
9,< 100,"COc1cncc2nc(-c3ccncc3)nc(N3CCN[C@@H](CO)C3)c12 [Example 46, [(2R)-4-[5-methoxy-2-(pyridin-4-yl)-pyrido[3,4-d]-pyrimidin-4-yl]-piperazin-2-yl]-methanol]"
10,< 100,"CC1(C)CN(c2nc(-c3ccnc(Nc4ccn(CC(F)(F)F)n4)c3)nc3cncc(C4CC4)c23)CCN1 [Example 2017, {4-[5-Cyclopropyl-4-(3,3-dimethyl-piperazin-1-yl)-pyrido[3,4-d]pyrimidin-2-yl]-pyridin-2-yl}-[1-(2,2,2-trifluoro-ethyl)-1H-pyrazol-3-yl]-amine]"
11,< 100,"Fc1ccccc1Nc1cc(-c2nc(N3CCNCC3)c3c(C4CC4)cncc3n2)ccn1 [Example 263, [4-(5-Cyclopropyl-4-piperazin-1-yl-pyrido[3,4-d]pyrimidin-2-yl)-pyridin-2-yl]-(2-fluoro-phenyl)-amine]"
12,< 100,"Fc1ccc(F)c(Nc2cc(-c3nc(N4CCNCC4)c4c(C5CC5)cncc4n3)ccn2)c1 [Example 521, [4-(5-Cyclopropyl-4-piperazin-1-yl-pyrido[3,4-d]pyrimidin-2-yl)-pyridin-2-yl]-(2,5-difluoro-phenyl)-amine]"
